# Test results taken from patent US11246865B2 (priority 2017, dated 2022).
# Columns and labels:
# [1] = rat, in vivo
# [2] = Study 1: tolerance and cross-tolerance, tail pinch test (MPE); assay type: in vivo, rat; conditions: for antinociceptive effect / tolerance in DPI-125 tolerant animals: tolerant to 1.0 mg/kg DPI-125 BID
# [3] = Studies 2 and 3: antinociceptive ED50 in naive and tolerant animals, tail pinch test; assay type: in vivo, rat; conditions: for ED50: Rattus norvegicus, sc, 20 min
# [4] = rat, in vivo; remark: listed apart in the source
# [5] = in vivo; conditions: rat
compound,measurement,setting,value
"CN1CC[C@]23c4c5ccc(O)c4O[C@H]2[C@@H](O)C=C[C@H]3[C@H]1C5 [Morphine, morphine, reference compound]",Analgesic ED50 Tail Pinch,[1],2.01 mg/kg
same,Mean MPE,"[2]; DPI-125 tolerant animals, challenge dose 1 (day 7), 30 min",2.63%
same,Mean MPE,"[2]; DPI-125 tolerant animals, challenge dose 1 (day 7), morphine 5.0 or DPI-125 1.0 mg/kg s.c., 20 min",1.76%
same,Mean MPE,"[2]; DPI-125 tolerant animals, challenge dose 2 (day 7.25), 20 min",0.00%
same,Mean MPE,"[2]; DPI-125 tolerant animals, challenge dose 2 (day 7.25), 30 min",1.75%
same,Mean MPE,"[2]; DPI-125 tolerant animals, challenge dose 3 (day 8), 20 min",3.51%
same,Mean MPE,"[2]; DPI-125 tolerant animals, challenge dose 3 (day 8), 30 min",0.00%
same,Mean MPE,"[2]; DPI-125 tolerant animals, challenge dose 4 (day 8.25), 20 min",0.88%
same,Mean MPE,"[2]; DPI-125 tolerant animals, challenge dose 4 (day 8.25), 30 min",0.00%
same,MPE on Day 1,"[2]; all animals, both dose points and both time points (20 and 30 min)",100%
same,time to maximal/complete tolerance,"[2]; b.i.d. s.c. dosing, morphine 5.0 mg/kg, DPI-125 1.0 mg/kg",5 days
same,Mean MPE,"[2]; morphine tolerant animals, challenge dose 1 (day 6), 30 min",4.4%
same,Mean MPE,"[2]; morphine tolerant animals, challenge dose 1 (day 6), morphine 5.0 or DPI-125 1.0 mg/kg s.c., 20 min",4.4%
same,Mean MPE,"[2]; morphine tolerant animals, challenge dose 2 (day 6.25), 20 min",0.9%
same,Mean MPE,"[2]; morphine tolerant animals, challenge dose 2 (day 6.25), 30 min",2.6%
same,Mean MPE,"[2]; morphine tolerant animals, challenge dose 3 (day 7), 20 min",0.0%
same,Mean MPE,"[2]; morphine tolerant animals, challenge dose 3 (day 7), 30 min",0.9%
same,Mean MPE,"[2]; morphine tolerant animals, challenge dose 4 (day 7.25), 20 min",2.6%
same,Mean MPE,"[2]; morphine tolerant animals, challenge dose 4 (day 7.25), 30 min",1.8%
same,Mean MPE,"[2]; tolerance development, dose 1 (day 1), s.c. BID (morphine 5.0, DPI-125 1.0 mg/kg), 20 minutes post-drug",100.0%
same,Mean MPE,"[2]; tolerance development, dose 1 (day 1), s.c. BID (morphine 5.0, DPI-125 1.0 mg/kg), 30 minutes post-drug",100.0%
same,Mean MPE,"[2]; tolerance development, dose 2 (day 1.25), s.c. BID, 20 minutes post-drug",100.0%
same,Mean MPE,"[2]; tolerance development, dose 2 (day 1.25), s.c. BID, 30 minutes post-drug",100.0%
same,Mean MPE,"[2]; tolerance development, dose 3 (day 2), s.c. BID, 20 minutes post-drug",78.9%
same,Mean MPE,"[2]; tolerance development, dose 3 (day 2), s.c. BID, 20 minutes post-drug, listed as morphine sulfate",78.9±7.9%
same,Mean MPE,"[2]; tolerance development, dose 3 (day 2), s.c. BID, 30 minutes post-drug",75.9%
same,Mean MPE,"[2]; tolerance development, dose 3 (day 2), s.c. BID, 30 minutes post-drug, listed as morphine sulfate",78.9±8.6%
same,Mean MPE,"[2]; tolerance development, dose 4 (day 2.25), s.c. BID, 20 minutes post-drug",56.6%
same,Mean MPE,"[2]; tolerance development, dose 4 (day 2.25), s.c. BID, 30 minutes post-drug",57.9%
same,Mean MPE,"[2]; tolerance development, dose 5 (day 3), s.c. BID, 20 minutes post-drug",33.8%
same,Mean MPE,"[2]; tolerance development, dose 5 (day 3), s.c. BID, 30 minutes post-drug",46.5%
same,Mean MPE,"[2]; tolerance development, dose 6 (day 3.25), s.c. BID, 20 minutes post-drug",32.9%
same,Mean MPE,"[2]; tolerance development, dose 6 (day 3.25), s.c. BID, 30 minutes post-drug",24.1%
same,Mean MPE,"[2]; tolerance development, dose 7 (day 4), s.c. BID, 20 minutes post-drug",23.7%
same,Mean MPE,"[2]; tolerance development, dose 7 (day 4), s.c. BID, 30 minutes post-drug",20.6%
same,Mean MPE,"[2]; tolerance development, dose 8 (day 4.25), s.c. BID, 20 minutes post-drug",7.0%
same,Mean MPE,"[2]; tolerance development, dose 8 (day 4.25), s.c. BID, 20 minutes post-drug, listed as morphine sulfate",7.0±2.8%
same,Mean MPE,"[2]; tolerance development, dose 8 (day 4.25), s.c. BID, 30 minutes post-drug",5.7%
same,Mean MPE,"[2]; tolerance development, dose 8 (day 4.25), s.c. BID, 30 minutes post-drug, listed as morphine sulfate",5.7±1.8%
same,Mean MPE,"[2]; tolerance development, dose 9 (day 5), s.c. BID, 20 minutes post-drug",3.1%
same,Mean MPE,"[2]; tolerance development, dose 9 (day 5), s.c. BID, 20 minutes post-drug, listed as morphine sulfate",3.1±1.2%
same,Mean MPE,"[2]; tolerance development, dose 9 (day 5), s.c. BID, 30 minutes post-drug",2.2%
same,Mean MPE,"[2]; tolerance development, dose 9 (day 5), s.c. BID, 30 minutes post-drug, listed as morphine sulfate",2.2±1.0%
same,Mean MPE,"[2]; tolerance development, dose 10 (day 5.25), s.c. BID, 20 minutes post-drug",5.3%
same,Mean MPE,"[2]; tolerance development, dose 10 (day 5.25), s.c. BID, 30 minutes post-drug",3.9%
same,antinociceptive effect / tolerance in DPI-125 tolerant animals,[2]; challenge morphine 5.0 or DPI-125 1.0 mg/kg,complete tolerance
same,antinociceptive effect / tolerance in DPI-125 tolerant animals,"[2]; challenge morphine 5.0 or DPI-125 1.0 mg/kg, listed as morphine sulfate",no antinociceptive effects
same,antinociceptive effect / tolerance in morphine tolerant animals,"[2]; tolerant to 5.0 mg/kg morphine BID, challenge morphine 5.0 or DPI-125 1.0 mg/kg",no antinociceptive effects
same,Fold Change of ED50,[3]; DPI-125 tolerant versus naive animals,7.8 fold
same,ED50,"[3]; DPI-125 tolerant animals, 20 min tail pinch",15.8 mg/kg
same,ED50,"[3]; morphine tolerant animals, 20 min tail pinch",11.3 mg/kg
same,ED50,"[3]; naive animals, 20 min tail pinch",2.04 mg/kg
same,Fold Change of ED50,[3]; morphine tolerant versus naive animals,5.5 fold
same,antinociceptive ED50,"[3]; naive animals, s.c., 20 min tail pinch",2.037 mg/kg
same,Therapeutic Ratio,[4],2.1
same,ED50,[5],4.23 mg/kg
